Laboratory results reported in PMC6718548, “Tau pathology reduction with SM07883, a novel, potent, and selective oral DYRK1A inhibitor: A potential therapeutic for Alzheimer's disease” (Aging Cell, 2019).
Like-named read-outs stand apart in the source and are kept apart here.

Key:
[1] = test system: phosphorylated tau at Thr212 in HEK293T cells; assay: pTau Thr212 sandwich ELISA in double-transfected HEK293T cells; type: cell-based, human; details: HEK293T co-transfected with DYRK1A and MAPT, overnight treatment, single lot, read-out: Cell assay EC50 pTau at Thr212
Excerpt: For the generation of the DYRK1A- and MAPT-overexpressing cells, HEK293T cells were transiently transfected with DYRK1A and MAPT genes. Specifically, expression vectors pCMV6-XL4 and pCMV6-Entry expressing DYRK1A and MAPT, alongside an empty vector control (pCI, OriGene, Catalog #SC314641 and RC216166, respectively; Promega, Catalog #E1731) and the material was amplified and purified using a custom MaxiPrep service (GENEWIZ, South Plainfield, NJ).
(§1) For ELISA assays, native SH-SY5Y cells, or transiently double-transfected HEK293T cells were dissociated by treatment with trypsin-EDTA and seeded in 96-well flat-bottom cell culturing plate before administration of 3-fold serial dilution of SM07883 overnight.
(§2) Following compound treatment, cells were washed and lysed with 1x RIPA buffer containing phosphatase and protease inhibitors transferred to 96-well V-bottom collection plates for centrifugation and removal of insoluble material.
The pTau Thr212 ELISA 96-well flat-bottom plates, were coated with anti-HT7 capture antibody (Catalog MN1000, Thermo Fisher, Waltham, […]) diluted 1:300 in 1X PBS at 4°C. After overnight incubation, coated plates were washed with 1× PBS containing 0.05% Tween-20 and blocked for 1hr 2% BSA (A7030-50G, Sigma-Aldrich, St. Louis, MO), then washed prior to sample loading.
For the pTau Thr212 sandwich ELISA, cell lysates were directly transferred to the anti-HT7 capture, antibody-coated, and BSA-blocked ELISA plates for 2hrs. Supernatant was then removed, and plates were washed with 1× PBS-0.05% Tween-20, followed by addition of 100 µL per well anti-phosphorylated tau Thr212 antibody (Catalog 44-740G, Thermo Fisher) diluted 1:200 in 1× PBS for 2hrs. Plates were washed and probed with an anti-rabbit/HRP conjugate (Cell Signaling Technology, 7074S) for 1hr then washed before a TMB substrate solution (Catalog N301, Thermo Fisher) was added. When a deep blue color was observed, 100 µL per well of stop solution (Catalog N600, Thermo Fisher) was added.
(§3) Colorimetric detection of pT212Tau or pS396Tau signal was read at 450 nm using the Cytation 3 Cell Imaging Multi-Mode Reader (BioTek, Winooski, VT). The signal was used to plot, draw the curve fitting, and determine the EC50 value for SM07883 in Prism 7 (GraphPad, La Jolla, CA).

[2] = test system: phosphorylated tau at Ser396 in SH-SY5Y cells; assay: pSer396Tau ELISA in SH-SY5Y neuroblastoma cells; type: cell-based, human; details: overnight (16 hr) treatment, single lot, read-out: Cell assay EC50 pTau at Ser396
Excerpt: as §1, §2, §3

DYRK1a = target: T1, DYRK1a (Homo sapiens, UniProt Q13627); assay: DYRK1A kinase assay (Z-Lyte / SelectScreen IC50); type: biochemical; details: Suppl. Table 2 comparison with commercially available inhibitors
T1 construct: purchased Thermo Fisher Scientific

GSK‐3β = target: T2, GSK‐3β (Homo sapiens, UniProt P49841); assay: Kinase IC50 (SelectScreen); type: biochemical; details: Suppl. Table 2 comparison with commercially available inhibitors; read-out: Kinase IC50 GSK-3b
T2 construct: purchased Thermo Fisher SelectScreen service
T2 sequence (P49841 whole entry): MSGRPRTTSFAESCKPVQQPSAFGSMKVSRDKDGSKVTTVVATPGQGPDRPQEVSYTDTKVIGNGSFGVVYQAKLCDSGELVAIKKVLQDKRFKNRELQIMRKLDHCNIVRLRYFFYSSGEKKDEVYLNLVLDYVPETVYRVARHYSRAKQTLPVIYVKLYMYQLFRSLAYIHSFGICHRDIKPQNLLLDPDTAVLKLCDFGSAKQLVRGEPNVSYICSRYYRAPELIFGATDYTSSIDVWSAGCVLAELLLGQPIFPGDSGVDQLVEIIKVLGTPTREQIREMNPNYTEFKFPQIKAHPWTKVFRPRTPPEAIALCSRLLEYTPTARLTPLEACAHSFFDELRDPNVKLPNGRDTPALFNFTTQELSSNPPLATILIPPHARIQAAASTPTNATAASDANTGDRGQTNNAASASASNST

| EC50 ([2]; Homo sapiens) [nM] | IC50 (DYRK1a) [nM] | IC50 (GSK‐3β) [nM] | EC50 [2] [nM] | Structure (SMILES) | EC50 ([1]; Homo sapiens, HEK-293T) [nM] | EC50 [1] [nM] |
| --- | --- | --- | --- | --- | --- | --- |
| 5200 | – | – | – | O=C(O)c1ccc2c(c1)nc(Nc1cccc(Cl)c1)c1ccncc12 [CX-4945] | 428 | – |
| – | 83 | > 10000 | 2500 | COC(=N)c1nc2ccc3ncnc(Nc4ccc(Cl)cc4Cl)c3c2s1 [EHT-5372] | – | 3800 |
| – | – | 1100 | 1400 | O=C1NC(Nc2ccccc2)=N/C1=C\c1ccc2c(c1)OCO2 [Leucettine L41] | – | 72 |
| – | – | > 10000 | > 10000 | CCN1/C(=C/C(C)=O)Sc2ccc(OC)cc21 [TG003] | – | > 10000 |
| > 10000 | – | – | – | O=c1sn(-c2cccc3ccccc23)c(=O)n1Cc1ccccc1 [Tideglusib] | > 10000 | – |

Second part, the molecule before the results:

| Structure (SMILES) | EC50 ([2]; Homo sapiens) [nM] | IC50 (DYRK1a) [nM] | IC50 (GSK‐3β) [nM] | EC50 [2] [nM] | EC50 ([1]; Homo sapiens, HEK-293T) [nM] | EC50 [1] [nM] |
| --- | --- | --- | --- | --- | --- | --- |
| Cc1c[nH]c(-c2cnc(NCCNc3ccc(C#N)cn3)nc2-c2ccc(Cl)cc2Cl)n1 [CHIR-99021] | 252 | – | – | – | > 10000 | – |
| Cc1ccc(C(=O)Nc2c[nH]nc2C(=O)NCCCOC(C)C)cn1 [Compound A, 6-Methyl-N-[3-[[3-(1-methylethoxy)propyl]carbamoyl]-1H-pyrazol-4-yl]pyridine-3-carboxamide] | 6 | 761 | – | – | > 10000 | – |
| O=C(O[C@@H]1Cc2c(O)cc(O)cc2O[C@@H]1c1cc(O)c(O)c(O)c1)c1cc(O)c(O)c(O)c1 [EGCG, Epigallocatechin gallate] | – | 1400 | > 10000 | > 10000 | – | > 10000 |
| COc1ccc2c(c1)[nH]c1c(C)nccc12 [Harmine] | > 10000 | – | – | – | 233 | – |
| CCN1/C(=C/C(C)=O)Sc2ccc(O)cc21 [INDY] | – | – | > 10000 | > 10000 | – | > 10000 |
